# Source: article PMC11544091 (Nature Communications, 2024)
# Molecular target: T1, human A3R (Homo sapiens, UniProt P0DMS8)
# T1 sequence (P0DMS8 1-318): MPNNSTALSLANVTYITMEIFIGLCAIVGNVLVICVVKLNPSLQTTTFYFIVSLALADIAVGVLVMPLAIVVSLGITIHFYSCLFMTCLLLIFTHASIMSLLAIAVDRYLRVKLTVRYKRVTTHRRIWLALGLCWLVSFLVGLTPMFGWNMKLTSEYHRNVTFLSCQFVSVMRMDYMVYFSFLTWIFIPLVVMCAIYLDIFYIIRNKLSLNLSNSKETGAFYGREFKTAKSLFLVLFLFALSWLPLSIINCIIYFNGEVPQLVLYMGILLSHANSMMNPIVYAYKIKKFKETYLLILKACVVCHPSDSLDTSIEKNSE
# Experiment: TGFα shedding assay, human A3R WT
# Type: cell-based
# Settings: for activation of A3R (in words): human A3R
calculated intrinsic activity (RAi) relative to adenosine (A3R) [%],activation of A3R (in words),"potency towards all four adenosine receptors (in words) (A1R, A2AR, A2BR, A3R)",Molecule
59,selectively activates A3R,,"CC(C)=CCNc1ncnc2c1ncn2[C@@H]1O[C@H](CO)[C@@H](O)[C@H]1O [i6A, N6-Isopentenyladenosine]"
,can also induce A3R activation,weak and non-selective potency,1-methyladenosine [m^1A]
,did not show any potency on A3R,,"C[C@@H](O)[C@H](NC(=O)Nc1ncnc2c1ncn2[C@@H]1O[C@H](CO)[C@@H](O)[C@H]1O)C(=O)O [t6A, N6-Threonylcarbamoyladenosine]"
7,very weak activation of A3R,,"CN(C)c1ncnc2c1ncn2[C@@H]1O[C@H](CO)[C@@H](O)[C@H]1O [m6,6A, N6,N6-Dimethyladenosine]"
